Measurements from paper PMC6773864, “The functional ClpXP protease of Chlamydia trachomatis requires distinct clpP genes from separate genetic loci” (Scientific Reports, 2019).
*1 amine or outer side, *2 acyl side, *3 side chain or, on linkers, in order; H or OH if unused. Where a SMILES comes first, the peptide text is derived from it. The star is where a group is joined. AMC = Cc1cc(=O)oc2cc(N*)ccc12; Suc = O=C(CCC(=O)[*:2])[*:1]

Legend:
[1] = target: T1, ctClpP1P2 (Chlamydia trachomatis, UniProt O84712+P38002); assay: peptidase assay, fluorescence (AMC release); type: biochemical; conditions: 100 µM substrate, 3 µM ClpP, no ADEP1, pH 7.6, 32 °C
T1 construct: gene clpP1; full-length, C-terminal Strep-tag on both (kept), expressed in E. coli dAPX-1 (clpP/clpX/clpA deleted), mixed 1:1; hetero-tetradecamer

[2] = target: T1, ctClpP1P2; assay: Suc-LY-AMC peptidase assay, fluorescence (AMC release); type: biochemical; conditions: activator; 15 µM ADEP1, 3 µM ClpP, 100 µM Suc-LY-AMC, no ClpX, pH 7.6, 32 °C; binds preferably via ClpP2 hydrophobic pocket

T1 sequence (P38002 2-192): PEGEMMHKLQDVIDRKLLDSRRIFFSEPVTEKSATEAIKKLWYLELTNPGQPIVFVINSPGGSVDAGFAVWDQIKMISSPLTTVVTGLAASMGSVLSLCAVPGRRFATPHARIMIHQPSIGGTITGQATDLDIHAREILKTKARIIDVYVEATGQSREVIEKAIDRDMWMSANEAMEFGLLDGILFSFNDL
T1 sequence (O84712 whole entry): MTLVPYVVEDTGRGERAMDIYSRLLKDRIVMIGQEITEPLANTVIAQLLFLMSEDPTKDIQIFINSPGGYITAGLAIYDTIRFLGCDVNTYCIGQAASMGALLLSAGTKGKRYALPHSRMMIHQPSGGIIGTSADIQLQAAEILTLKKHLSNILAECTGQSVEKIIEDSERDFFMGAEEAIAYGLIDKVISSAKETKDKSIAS

Row | Compound | peptidase assay, fluorescence (AMC release) [1] | fold increase in peptidase activity at 15 μM [2] [fold]
1 | Cc1cc(=O)oc2cc(NC(=O)[C@H](Cc3ccc(O)cc3)NC(=O)[C@H](CC(C)C)NC(=O)CCC(=O)O)ccc12 [Suc-LY-AMC] (Suc-Leu-Tyr-{AMC}) | when combined, ctClpP1P2 steadily hydrolysed Suc-LY-AMC | –
2 | ADEP1 | – | > 2.5
